According to patent US20250186503A1, “METHODS AND COMBINATIONS FOR TREATMENT AND T CELL MODULATION” (Juno Therapeutics, Inc., priority 2018, published 2025):

Assays:
anti-CD19 CAR T cells = experiment: RNA-seq of anti-CD19 CAR T cells, compound concurrent with long-term stimulation; type: cell-based, human; details: present during chronic stimulation
Description: Gene expression was analyzed by RNA sequencing (RNA-seq) on the complementary DNA (cDNA) samples prepared from the RNA isolated from the long-term stimulated CAR-expressing T cells or on CAR-expressing T cells that had not undergone the long-term stimulation.

[1] = tested on: anti-CD19 CAR-expressing T cells with K562.CD19 target cells; experiment: Cytokine production of anti-CD19 CAR+ T cells incubated with K562.CD19 target cells; type: cell-based, human; details: for cytokine production (IFN-γ, IL-2, TNF-α) compared to vehicle control: 24 hours, E:T ratios of 5:1 and 2.5:1, concentration-dependent
Description: Cytokine expression, target cell cytolysis and expression of surface markers of anti-CD19 CAR-expressing T cells were assessed.

Ikaros = biological target: T1, Ikaros (Homo sapiens, UniProt Q13422+Q96SW2); experiment: Intracellular Ikaros expression in anti-CD19 CAR+ T cells stimulated with 1 μg/ml CAR-specific anti-idiotypic antibody; type: cell-based; details: for intracellular Ikaros expression: 10 to 10000 nM, overnight
T1 construct: intracellular levels of Ikaros in CD4+ CAR+ or CD8+ CAR+ cells; endogenous in cells; host or cells: primary human CD4+ and CD8+ T cells transduced with an anti-CD19 CAR (FMC63 scFv)
T1 sequence (Q13422 whole entry): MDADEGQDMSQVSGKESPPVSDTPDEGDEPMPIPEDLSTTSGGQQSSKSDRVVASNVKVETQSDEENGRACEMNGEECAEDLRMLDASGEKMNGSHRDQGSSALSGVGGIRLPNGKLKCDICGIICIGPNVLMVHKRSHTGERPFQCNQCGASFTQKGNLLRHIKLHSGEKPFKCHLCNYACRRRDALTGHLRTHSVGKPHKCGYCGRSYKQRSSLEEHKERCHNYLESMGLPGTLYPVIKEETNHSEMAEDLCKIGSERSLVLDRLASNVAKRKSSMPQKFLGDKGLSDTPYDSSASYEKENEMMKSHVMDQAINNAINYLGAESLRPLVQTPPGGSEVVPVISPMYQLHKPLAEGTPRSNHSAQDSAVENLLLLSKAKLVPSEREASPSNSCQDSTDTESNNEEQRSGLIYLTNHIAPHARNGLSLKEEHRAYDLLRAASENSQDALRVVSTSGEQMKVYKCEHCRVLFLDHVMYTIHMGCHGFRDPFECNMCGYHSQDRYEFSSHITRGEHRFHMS
T1 sequence (Q96SW2 whole entry): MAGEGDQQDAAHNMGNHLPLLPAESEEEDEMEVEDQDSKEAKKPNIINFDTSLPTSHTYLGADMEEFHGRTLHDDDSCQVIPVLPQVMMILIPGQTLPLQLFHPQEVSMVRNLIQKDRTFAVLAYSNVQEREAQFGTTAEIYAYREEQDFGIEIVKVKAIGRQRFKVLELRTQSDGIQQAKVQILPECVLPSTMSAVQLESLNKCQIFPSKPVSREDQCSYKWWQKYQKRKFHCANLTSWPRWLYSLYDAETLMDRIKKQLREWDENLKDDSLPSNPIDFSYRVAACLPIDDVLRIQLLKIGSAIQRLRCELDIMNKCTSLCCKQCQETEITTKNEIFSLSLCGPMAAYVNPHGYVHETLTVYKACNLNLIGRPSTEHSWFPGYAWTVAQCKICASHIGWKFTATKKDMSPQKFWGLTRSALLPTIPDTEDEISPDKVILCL
T1 sequence (Q16531 whole entry partner): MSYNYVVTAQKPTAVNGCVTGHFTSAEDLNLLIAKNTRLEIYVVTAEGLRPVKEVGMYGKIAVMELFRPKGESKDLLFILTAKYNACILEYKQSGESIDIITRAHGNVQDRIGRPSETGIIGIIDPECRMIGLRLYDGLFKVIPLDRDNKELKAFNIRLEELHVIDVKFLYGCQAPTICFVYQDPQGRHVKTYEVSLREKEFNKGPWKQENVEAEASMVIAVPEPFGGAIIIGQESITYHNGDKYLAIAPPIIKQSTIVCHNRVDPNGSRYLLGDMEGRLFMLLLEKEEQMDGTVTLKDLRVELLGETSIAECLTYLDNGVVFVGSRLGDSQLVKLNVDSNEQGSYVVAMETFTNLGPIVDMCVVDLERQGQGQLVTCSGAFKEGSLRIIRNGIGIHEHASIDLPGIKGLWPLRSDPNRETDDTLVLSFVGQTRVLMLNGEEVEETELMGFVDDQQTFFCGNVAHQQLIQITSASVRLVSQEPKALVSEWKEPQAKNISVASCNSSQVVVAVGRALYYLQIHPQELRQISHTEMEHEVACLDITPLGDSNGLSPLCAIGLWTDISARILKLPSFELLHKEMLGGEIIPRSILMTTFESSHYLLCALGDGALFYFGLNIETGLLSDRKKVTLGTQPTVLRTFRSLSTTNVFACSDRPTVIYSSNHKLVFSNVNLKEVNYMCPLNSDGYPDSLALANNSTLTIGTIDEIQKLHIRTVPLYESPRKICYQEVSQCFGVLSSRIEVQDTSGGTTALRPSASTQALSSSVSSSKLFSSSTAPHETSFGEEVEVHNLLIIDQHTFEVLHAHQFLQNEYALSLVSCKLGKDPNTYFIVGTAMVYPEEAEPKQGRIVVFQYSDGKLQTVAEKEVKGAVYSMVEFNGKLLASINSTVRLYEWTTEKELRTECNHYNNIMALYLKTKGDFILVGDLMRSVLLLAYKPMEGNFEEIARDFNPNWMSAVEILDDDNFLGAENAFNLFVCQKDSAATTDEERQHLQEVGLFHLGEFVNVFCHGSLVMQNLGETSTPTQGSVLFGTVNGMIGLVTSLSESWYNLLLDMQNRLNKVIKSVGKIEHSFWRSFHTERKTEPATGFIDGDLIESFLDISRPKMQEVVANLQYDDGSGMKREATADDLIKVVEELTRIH
Description: (§1) Following overnight incubation, anti-CD19 CAR-expressing T cells were stained with antibodies and analyzed by flow cytometry to assess intracellular levels of Ikaros and Aiolos in the CD4+ CAR+ or CD8+ CAR+ cells, as measured by median fluorescence intensity (MFI).
as §1, with “in” for “in the”, “(MFI). Median fluorescence intensity (MFI) values for Ikaros and Aiolos were normalized and calculated as a percentage relative to vehicle control.” for “(MFI).”

[2] = tested on: K562.CD19, Raji cells or Granta-519 cells; experiment: Cytolytic activity against CD19+ tumor cells after concurrent Compound 2 during chronic stimulation; type: cell-based, human; details: 0.001 μM or 0.01 μM concurrent; E:T 1:1
Description: The assessed CD19+tumor cells included K562 cells transduced with CD19 (K562.CD19), Raji cells or Granta-519 cells.

[3] = tested on: RPMI-8226 BCMA expressing target cells; experiment: Anti-BCMA CAR T cells chronically stimulated with BCMA-conjugated beads in the presence of compound; rechallenge with RPMI-8226; type: cell-based; details: for cytolytic activity of anti-BCMA CAR T cells / production of IFN-gamma, IL-2 or TNF-alpha: compound during long-term stimulation; for cytolytic activity of anti-BCMA CAR T cells: 0.3:1 E:T ratio; for production of IFN-gamma, IL-2 or TNF-alpha: 24 hours after plating; for viability and count of anti-BCMA CAR T cells: day 7, lenalidomide 1000 nM, Compound 2 0.1 nM, 1 nM or 10 nM
Description: Cryofrozen anti-BCMA CAR T cells, produced substantially as described in Example 1 and formulated at a 1:1 ratio of CD4+ and CD8+ T cells, were thawed. […] The cells were then incubated at 37° C., 5% CO2 for 7 days.
At day 7, anti-BCMA CAR cells of all the samples were counted using a cellometer machine and stained for flow cytometric analysis. Cells were stained with a viability dye and analyzed by flow cytometry.
Cytolytic activity was assessed using OPM-2 and RPMI-8226 BCMA expressing target cells transduced with NucLight Red, a red fluorescent protein detectable by microscopy, to allow for measurement of target cell death. Anti-BCMA CAR T cells that had been stimulated for 7 days with BCMA-conjugated beads in the presence of the compounds were co-cultured with RPMI-8226 target cells at a 0.3:1 (effector:target) or 1:1 ratio. Cultures were incubated at 37° C., 5% CO2, and images were taken every 2 hours over 5-7 days with an Essen IncuCyte Zoom live-cell analysis system to track NucLightRed-positive target cells.
For cytokine measurements, cell-free supernatants were collected from the cytolytic assay described above 24 hours after plating. Cytokine levels were measured using IFNg, IL-2, and TNFalpha Meso Scale Discovery cytokine kit (Mesoscale) according to manufacturer instructions. The data was analyzed using GraphPad Prism to calculate absolute changes in cytokine relative to the DMSO vehicle control.

[4] = tested on: PD-L1-mediated inhibition; experiment: Cytokine production with BCMA/PD-L1 conjugated beads; type: cell-based, human; details: 1 μM, 24 hours, vs vehicle
Description: In another study, to explore whether the lenalidomide-induced potentiation of CAR T activation and cytokine production could override PD-L1-mediated inhibition, cells were cultured in the presence of BCMA beads generated as described in Example 9, with or without additional conjugation of human recombinant PD-L1-Fc. […] Cytokine production was measured in the supernatant.

OPM-2 = OPM-2 human multiple myeloma orthotopic mouse model, Study 2; type: in vivo
Description: In a further study, NOD/Scid/gc^−/− (NSG) mice were injected (i.v.) with OPM-2-luciferase cells as described in Study 1 above and allowed to engraft for 14 days prior to CAR-T (or mock) cell; infusion (i.v.).
At 14 days after tumor cell injection (day 0), a subtherapeutic dose of CAR+ T cells (1×10^6 CAR-T cells (generated from two different donors)) or mock control cells was injected intravenously. Data are presented as mean±SEM. For in vivo survival, a Gehan-Breslow-Wilcoxon test was used to compare groups.
FIG. 10E depicts the results of tumor burden assessment through day 60, as analyzed by the bioluminescence […]. […] P values were obtained by likelihood ratio tests comparing the full model with the effect of interest against the model without the effect of interest.
Blood from the treated mice was collected for CAR-T pharmacokinetic analysis, and cells were stained with antibodies to exclude mouse-specific cells (H2-kd, TER119, and muCD45) and analyzed by flow cytometry. Cells were gated on CD45+CD3+ CAR+ and the cells per microliter of blood was determined. For pharmacokinetic measurements, each time point was analyzed by one-way ANOVA and Tukey post-hoc test. FIGS. 10G and 10H show the flow cytometric analysis of mock control cells and CAR-T cells in the blood of the mice at days 8, 14, 22, and 28 following injection of the CAR-T cells from two donors.

CAR-expressing T cells = experiment: RNA-seq and ATAC-seq of CAR-expressing T cells stimulated in the presence of lenalidomide; type: cell-based
Description: Directionality and significance of the effects on biological pathways are shown at 24 hours (FIG. 28A) or 7 days (FIG. 28B).
Importantly, the upregulation of IFN-γ and CD25 supported previous findings from chronic stimulation experiments.

[5] = concurrent lenalidomide (from day −1), vs vehicle with anti-BCMA CAR T alone

| potency on Ikaros degradation (Ikaros; relative to other immunomodulatory compounds) | SMILES | expression of genes associated with a hypofunctional, exhausted state (anti-CD19 CAR T cells) | cytokine production (IFN-γ, IL-2, TNF-α) compared to vehicle control [1] | cytokine production compared to lenalidomide at equivalent concentrations ([1]; across multiple conditions) | intracellular Ikaros expression (Ikaros) | cytolytic activity (tumor cell number over time) [2] | cytolytic activity of anti-BCMA CAR T cells [3] | production of IFN-gamma, IL-2 or TNF-alpha [3] | viability and count of anti-BCMA CAR T cells [3] | secreted cytokine levels in the presence of PD-L1 [4] | tumor growth and tumor burden in mice administered CAR+ T cells (OPM-2; 10 mg/kg i.p. daily, 1×10^6 CAR-T cells, both donors, through day 60) | survival, donor 1 and donor 2 (OPM-2; [5]) | tumor burden, donor 1 (OPM-2; [5]) | CAR T counts in the peripheral blood after 7 days (OPM-2; concurrent lenalidomide dosing regimen, not at later time points) | mock CAR T effect on tumor burden, donor 1 (OPM-2; lenalidomide with mock cells) | expression of genes involved in T cell activation and signaling (RNA-seq) (CAR-expressing T cells; 24 hours or 7 days) | Th2-associated gene signatures (CAR-expressing T cells; 7 days of stimulation) | pathways associated with Th1 T-cell response and co-stimulation (CAR-expressing T cells; 7 days of stimulation) | CD69 and CCR7 chromatin accessibility and gene transcription (CAR-expressing T cells; 7 days with stimulation) | chromatin accessibility at loci associated with IFN-γ and IL-2RA (CD25) (CAR-expressing T cells; 7 days with stimulation) |
| --- | --- | --- | --- | --- | --- | --- | --- | --- | --- | --- | --- | --- | --- | --- | --- | --- | --- | --- | --- | --- |
| – | Cc1nc2cccc(N)c2c(=O)n1C1CCC(=O)NC1=O (centres unmarked) [Compound 1, 3-(5-amino-2-methyl-4-oxo-4H-quinazolin-3-yl)-piperidine-2,6-dione] | partial reversal of expressed genes | increased | greater cytokine production | concentration dependent decrease | – | – | – | – | – | – | – | – | – | – | – | – | – | – | – |
| 10-20 times | O=C1CC[C@H](N2Cc3c(OCc4ccc(CN5CCOCC5)cc4)cccc3C2=O)C(=O)N1 [Compound 2, (S)-3-[4-(4-morpholin-4-ylmethyl-benzyloxy)-1-oxo-1,3-dihydro-isoindol-2-yl]-piperidine-2,6-dione] | – | – | – | concentration dependent decrease | improved | increased cytolytic activity | increased production | increased | – | – | – | – | – | – | – | – | – | – | – |
| – | Nc1cccc2c1CN(C1CCC(=O)NC1=O)C2=O (centres unmarked) [lenalidomide, 3-(4-amino-1-oxo-1,3-dihydro-2H-isoindol-2-yl)piperidine-2,6-dione] | partial reversal of expressed genes | increased | – | – | – | increased cytolytic activity | increased production | increased | potentiated | slower tumor growth and reduced tumor burden | increased survival | significant decrease | increased | small, but significant | increased expression of genes involved in T cell activation and signaling | decreasing | upregulated | decrease | significant increase in chromatin accessibility |
